The structures appear in SMILES notation.

The first experiment relates to Respiratory Syncytial Virus. In words: In vitro screening for activity against Respiratory Syncytial Virus (MTT tetrazolium colorimetric assay, HeLa cells). It counts as cell-based. The following applies: activity category; protection against RSV cytopathology in HeLa cells, 7 days after infection. From the text:
The percent protection against cytopathology caused by viruses (antiviral activity or EC50) achieved by tested compounds and their cytotoxicity (CC50) are both calculated from dose-response curves. The selectivity of the antiviral effect is represented by the selectivity index (SI), calculated by dividing the CC50 (cytotoxic dose for 50% of the cells) by the EC50 (antiviral activity for 50% of the cells). The tables in the above experimental part list the category to which each of the prepared compounds belong. Compounds belonging to activity category “A” have an pEC50 (−log of EC50 when expressed in molar units) equal to or more than 7. Compounds belonging to activity category “B” have a pEC50 value between 6 and 7.
Automated tetrazolium-based […] assays were used for determination of EC50 and CC50 of test compounds. Flat-bottom, 96-well plastic microtiter trays were filled with 180 μl of Eagle's Basal Medium, supplemented with 5% FCS (0% for FLU) and 20 mM Hepes buffer. Subsequently, stock solutions (7.8× final test concentration) of compounds were added in 45 μl volumes to a series of triplicate wells so as to allow simultaneous evaluation of their effects on virus- and mock-infected cells. Five five-fold dilutions were made directly in the microtiter trays using a robot system. Untreated virus controls, and HeLa cell controls were included in each test. Approximately 100 TCID50 of Respiratory Syncytial Virus was added to two of the three rows in a volume of 50 μl. The same volume of medium was added to the third row to measure the cytotoxicity of the compounds at the same concentrations as those used to measure the antiviral activity. After two hours of incubation, a suspension (4×10^5 cells/ml) of HeLa cells was added to all wells in a volume of 50 μl. The cultures were incubated at 37° C. in a 5% CO2 atmosphere. Seven days after infection the cytotoxicity and the antiviral activity was examined spectrophotometrically. To each well of the microtiter tray, 25 μl of a solution of MTT (3-(4,5-dimethylthiazol-2-yl)-2,5-diphenyltetrazolium bromide) was added. The trays were further incubated at 37° C. for 2 hours, after which the medium was removed from each cup. Solubilization of the formazan crystals was achieved by adding 100 μl 2-propanol. Complete dissolution of the formazan crystals were obtained after the trays have been placed on a plate shaker for 10 min. Finally, the absorbances were read in an eight-channel computer-controlled photometer (Multiskan MCC, Flow Laboratories) at two wavelengths (540 and 690 nm). The absorbance measured at 690 nm was automatically subtracted from the absorbance at 540 nm, so as to eliminate the effects of non-specific absorption.
In general terms: Tetrazolium assays rely on reduction of a dye to a coloured formazan, in cell work by metabolically active cells.
Regarding `CCOC(=O)c1ccc2nc(NC3CCNCC3)n(Cc3nc(C)ccc3O)c2c1` [Compound 141], the Activity result is listed as “C (pEC50 value equal to or below 6)”.

In the case of `CCOC(=O)c1ccc2nc(NC3CCN(Cc4ccccc4)CC3)n(Cc3nc(C)ccc3O)c2c1` [Compound 142], the Activity entry is given as “C (pEC50 value equal to or below 6)”.

Still in this experiment, the particulars now being: protection against RSV cytopathology in HeLa cells, 7 days after infection; pEC50 = −log of EC50 in molar units.
`Cc1ccc(O)c(Cn2c(NC3CCN(C)CC3)nc3ccc(NC(=O)c4cccnc4)cc32)n1` [Compound 114] displayed an Activity of 5.2.

Compound `Cc1ccc(O)c(Cn2c(NC3CCN(C)CC3)nc3cc(/C=C/C#N)ccc32)n1` [Compound 115] came in with an Activity of 5.1.

Consider `Cc1ccc(O)c(Cn2c(NC3CCN(C)CC3)nc3ccc(CNCCN4CCOCC4)cc32)n1` [Compound 117], for which the Activity was 5.1.

In the case of `Cc1ccc(O)c(Cn2c(NC3CCN(C)CC3)nc3cc(C(=O)NCc4ccco4)ccc32)n1` [Compound 118], the Activity is on record as 4.9.

In turn, `Cc1ccc(O)c(Cn2c(NC3CCN(C)CC3)nc3ccc(C(=O)NCc4ccco4)cc32)n1` [Compound 119] registered an Activity of 4.8.

Regarding `Cc1ccc(O)c(Cn2c(NC3CCN(C)CC3)nc3cc(C(=O)NCCc4ccccc4)ccc32)n1` [Compound 120], the Activity came to 4.6.

Consider `Cc1ccc(O)c(Cn2c(NC3CCN(C)CC3)nc3cc(CO)ccc32)n1` [Compound 122], for which the Activity is recorded as under 4.

Regarding `Cc1ccc(/C=C/c2ccc3c(c2)nc(NC2CCN(C)CC2)n3Cc2nc(C)ccc2O)cc1` [Compound 125], the Activity is under 4.

For the compound `Cc1ccc(O)c(Cn2c(NC3CCN(C)CC3)nc3ccc(/C=C/c4ccc(Cl)cc4)cc32)n1` [Compound 126], the Activity was under 4.

Turning to `Cc1ccc(O)c(Cn2c(NC3CCN(C)CC3)nc3cc(/C=C/c4ccc(Cl)cc4)ccc32)n1` [Compound 127], the Activity is recorded as under 4.

`Cc1ccc(/C=C/c2ccc3nc(NC4CCN(C)CC4)n(Cc4nc(C)ccc4O)c3c2)cc1` [Compound 128] registered an Activity of under 4.

`Cc1cccc(NCc2ccc3c(c2)nc(NC2CCN(C)CC2)n3Cc2nc(C)ccc2O)c1` [Compound 130]: the Activity was 4.6.

Compound `Cc1ccc(O)c(Cn2c(NC3CCN(C)CC3)nc3cc(CNc4ccccc4)ccc32)n1` [Compound 131] gave an Activity of under 4.

Consider `Cc1cccc(SCc2ccc3c(c2)nc(NC2CCN(C)CC2)n3Cc2nc(C)ccc2O)c1` [Compound 132], for which the Activity was under 4.

Compound `Cc1ccc(O)c(Cn2c(NC3CCN(C)CC3)nc3ccc(C(=O)NCc4ccccn4)cc32)n1` [Compound 134] had an Activity of under 4.

Compound `Cc1ccc(O)c(Cn2c(NC3CCN(C)CC3)nc3cc(C(=O)NCc4ccccn4)ccc32)n1` [Compound 135] gave an Activity of under 4.

Consider `Cc1ccc(O)c(Cn2c(NC3CCN(C)CC3)nc3ccc(C(=O)NCCc4ccccc4)cc32)n1` [Compound 136], for which the Activity is listed as under 4.

As to `Cc1ccc(O)c(Cn2c(NC3CCN(C)CC3)nc3ccc(CN(CCC#N)CCC#N)cc32)n1` [Compound 137], the Activity is under 4.

For the compound `CCOC(=O)c1ccc2c(c1)nc(NC1CCNCC1)n2Cc1nc(C)ccc1O` [Compound 139], the Activity is 5.1.

For `CCOC(=O)c1ccc2c(c1)nc(NC1CCN(Cc3ccccc3)CC1)n2Cc1nc(C)ccc1O` [Compound 140], the Activity is given as under 4.

On to `Cc1cccc(/C=C/c2ccc3c(c2)nc(NC2CCN(CCN)CC2)n3Cc2nc(C)ccc2O)c1.Cl` [Compound 147], for which the Activity was determined as 8.8.

The compound `Cc1cc(C)cc(NCc2ccc3nc(NC4CCN(CCO)CC4)n(Cc4nc(C)ccc4O)c3c2)c1` [Compound 149] gave an Activity of 8.8.

`Cc1cccc(NCc2ccc3nc(NC4CCN(CCCO)CC4)n(Cc4nc(C)ccc4O)c3c2)c1` [Compound 156] had an Activity of 8.4.

Regarding `Cc1ccc(O)c(Cn2c(NC3CCN(CCN)CC3)nc3cc(CCc4ccccc4)ccc32)n1.Cl` [Compound 157], the Activity turned out to be 7.9.

Turning to `Cc1cccc(CCc2ccc3c(c2)nc(NC2CCN(CCN)CC2)n3Cc2nc(C)ccc2O)c1.Cl` [Compound 158], the Activity turned out to be 7.9.

Consider `Cc1ccc(O)c(Cn2c(NC3CCN(CCO)CC3)nc3ccc(CNc4cccc(O)c4)cc32)n1` [Compound 159], for which the Activity was found to be 7.9.

Compound `Cc1ccc(O)c(Cn2c(NC3CCN(CCO)CC3)nc3ccc(CCC#N)cc32)n1` [Compound 161] yielded an Activity of 7.8.

`Cc1ccc(O)c(Cn2c(NC3CCN(CCO)CC3)nc3ccc(CCc4ccccc4)cc32)n1` [Compound 162] showed an Activity of 7.5.

As to `Cc1ccc(O)c(Cn2c(NC3CCN(CCC(N)=O)CC3)nc3ccc(CCc4ccccc4)cc32)n1` [Compound 163], the Activity is 7.2.

`Cc1cc(C)cc(NCc2ccc3nc(NC4CCN(Cc5ccccc5)CC4)n(Cc4nc(C)ccc4O)c3c2)c1` [Compound 164] came in with an Activity of 7.2.

Turning to `Cc1ccc(O)c(Cn2c(NC3CCN(Cc4ccccc4)CC3)nc3ccc(CNc4cc(Cl)cc(Cl)c4)cc32)n1` [Compound 165], the Activity is recorded as 7.1.

For the compound `Cc1ccc(O)c(Cn2c(NC3CCN(CCC(N)=O)CC3)nc3cc(C=Cc4ccccc4)ccc32)n1` [Compound 166], the Activity is 6.8.

In turn, `Cc1cccc(NCc2ccc3nc(NC4CCN(Cc5ccccc5)CC4)n(Cc4nc(C)ccc4O)c3c2)c1` [Compound 167] had an Activity of 6.8.

For the compound `Cc1ccc(O)c(Cn2c(NC3CCN(CCO)CC3)nc3cc(CCc4ccccc4)ccc32)n1` [Compound 168], the Activity is given as 6.6.

In the case of `Cc1ccc(O)c(Cn2c(NC3CCN(CCO)CC3)nc3ccc(C=Cc4ccccc4)cc32)n1` [Compound 169], the Activity is reported as 6.6.

As to `Cc1ccc(O)c(Cn2c(NC3CCN(CCC(N)=O)CC3)nc3cc(CCc4ccccc4)ccc32)n1` [Compound 170], the Activity was 5.7.

The compound `Cc1cc(C)cc(NCc2cc(C)c3nc(NC4CCN(CCO)CC4)n(Cc4nc(C)ccc4O)c3c2)c1` [Compound 172] displayed an Activity of 8.5.

On to `Cc1cc(C)cc(NCc2ccc3c(c2)nc(NCCCN2CCCCC2)n3Cc2nc(C)ccc2O)c1` [Compound 176], for which the Activity amounted to 7.2.

The compound `Cc1ccc(O)c(Cn2c(NCCCN3CCCCC3)nc3ccc(CO)cc32)n1` [Compound 177] showed an Activity of 7.1.

For the compound `Cc1ccc(O)c(Cn2c(NCCCN3CCN(C)CC3)nc3ccc(CO)cc32)n1` [Compound 178], the Activity is reported as 6.5.

Turning to `Cc1cc(C)cc(NCc2ccc3c(c2)nc(NCCCN2CCN(C)CC2)n3Cc2nc(C)ccc2O)c1` [Compound 179], the Activity is given as 6.2.

The compound `Cc1cc(C)cc(NCc2ccc3c(c2)nc(NCC(O)CO)n3Cc2nc(C)ccc2O)c1` (stereo not drawn) [Compound 180] came in with an Activity of 5.6.

Compound `Cc1ccc(O)c(Cn2c(NCCCN3CCCCC3)nc3cc(CO)ccc32)n1` [Compound 182] showed an Activity of 5.

Turning to `Cc1ccc(O)c(Cn2c(NCCCN3CCN(C)CC3)nc3cc(CO)ccc32)n1` [Compound 183], the Activity is listed as 5.

As for `Cc1cc(C)cc(NCc2ccc3nc(NCC4COC(C)(C)O4)n(Cc4nc(C)ccc4O)c3c2)c1` (stereo not drawn) [Compound 184], the Activity is on record as under 4.

`Cc1ccc(O)c(Cn2c(NCCc3ccccc3)nc3cc(CO)ccc32)n1` [Compound 185]: the Activity is under 4.

Take `Cc1cc(C)cc(NCc2ccc3c(c2)nc(NCCc2ccccc2)n3Cc2nc(C)ccc2O)c1` [Compound 186]: the Activity is given as under 4.

`Cc1cc(C)cc(NCc2ccc3nc(NCCc4ccccc4)n(Cc4nc(C)ccc4O)c3c2)c1` [Compound 187] returned an Activity of under 4.

`Cc1ccc(O)c(Cn2c(NCCc3ccccc3)nc3ccc(CO)cc32)n1` [Compound 188] registered an Activity of 4.4.

On to `COc1ccc(CCNc2nc3cc(CO)ccc3n2Cc2nc(C)ccc2O)cc1` [Compound 189], for which the Activity was under 4.

For `COc1ccc(CCNc2nc3cc(CNc4cc(C)cc(C)c4)ccc3n2Cc2nc(C)ccc2O)cc1` [Compound 191], the Activity is under 4.

In turn, `Cc1ccc(O)c(Cn2c(NCCc3ccccc3)nc3ccc(CNc4cc(Cl)cc(Cl)c4)cc32)n1` [Compound 192] yielded an Activity of under 4.
